We go through six compounds from patent US9340600B2 (Indiana University Research and Technology Corporation, priority 2012, dated 2016).

What all share (assay type): cell-based
For one assay, the target named is T1, GLP-1 receptor (Homo sapiens, UniProt P43220).
T1 construct: expressed in transfected cells; host or cells: HEK293
Put plainly: cAMP induction, firefly luciferase-based reporter assay in HEK293 cells co-transfected with GLP-1 receptor. The settings on record: EC50 at GLP-1 Receptor. From the text:
(§1) This example describes an exemplary method of testing the biological activity of the peptides of the present disclosures, which method involves assaying cAMP synthesis.
(Reporter assays use an easily measured gene product as a stand-in for the process of interest.)

For another assay, the target named is T2, glucagon receptor (Homo sapiens, UniProt P47871).
T2 construct: expressed in transfected cells; host or cells: HEK293
T2 sequence (P47871 26-477): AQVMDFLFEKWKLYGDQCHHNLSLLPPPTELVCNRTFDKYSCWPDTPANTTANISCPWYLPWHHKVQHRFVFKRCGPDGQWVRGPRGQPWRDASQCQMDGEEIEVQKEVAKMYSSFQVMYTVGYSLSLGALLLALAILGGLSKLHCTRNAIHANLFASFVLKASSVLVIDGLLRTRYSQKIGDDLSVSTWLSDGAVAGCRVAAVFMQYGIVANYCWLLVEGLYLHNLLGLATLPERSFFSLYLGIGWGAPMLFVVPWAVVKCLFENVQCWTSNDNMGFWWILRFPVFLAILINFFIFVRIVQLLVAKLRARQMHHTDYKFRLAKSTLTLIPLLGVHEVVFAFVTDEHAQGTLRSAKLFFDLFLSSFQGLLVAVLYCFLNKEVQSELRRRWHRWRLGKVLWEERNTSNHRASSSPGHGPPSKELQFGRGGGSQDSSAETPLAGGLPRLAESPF
Put plainly: cAMP induction, firefly luciferase-based reporter assay in HEK293 cells co-transfected with glucagon receptor. The settings on record: for EC50: EC50 at Glucagon Receptor.
Description: as §1

For another assay, the target named is T3, GIP receptor (Homo sapiens, UniProt P48546).
T3 construct: expressed in transfected cells; host or cells: HEK293
T3 sequence (P48546 22-466): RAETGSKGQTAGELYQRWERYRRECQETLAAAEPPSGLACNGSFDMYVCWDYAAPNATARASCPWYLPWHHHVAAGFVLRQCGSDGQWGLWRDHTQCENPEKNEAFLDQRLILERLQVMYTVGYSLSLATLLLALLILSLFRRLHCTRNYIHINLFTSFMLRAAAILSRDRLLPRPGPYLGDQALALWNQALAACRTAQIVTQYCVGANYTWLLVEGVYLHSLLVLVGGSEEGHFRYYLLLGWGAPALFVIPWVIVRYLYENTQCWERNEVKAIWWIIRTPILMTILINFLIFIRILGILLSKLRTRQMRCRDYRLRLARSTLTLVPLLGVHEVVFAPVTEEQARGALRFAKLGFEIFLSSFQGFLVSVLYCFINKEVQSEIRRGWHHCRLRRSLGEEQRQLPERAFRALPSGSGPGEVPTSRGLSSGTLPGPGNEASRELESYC
Put plainly: cAMP induction, firefly luciferase-based reporter assay in HEK293 cells co-transfected with GIP receptor. The settings on record: EC50 at GIP Receptor.
Description: as §1

The mark [1] stands for this setting: Table 4, analogs of SEQ ID NO: 43 varying at position 3.
Setting [2] is: Table 3, analogs of SEQ ID NO: 18 varying at position 3.

SMILES strings stand for the structures. *1 amine or outer side, *2 acyl side, *3 side chain or, on linkers, in order; H or OH if unused. Where a SMILES comes first, the peptide text is derived from it. Side-chain parts run from the residue outwards. [ ]: non-standard residue; d: D form. The star is where a group is joined. γGlu = O=C(O)[C@H](CCC(=O)[*:2])N[*:1]; Palmitoyl = CCCCCCCCCCCCCCCC(=O)*; Dab = NCC[C@H](N)C(=O)O; Nva = CCC[C@H](N)C(=O)O; Aib = CC(C)(N)C(=O)O

T1 sequence (P43220 24-463): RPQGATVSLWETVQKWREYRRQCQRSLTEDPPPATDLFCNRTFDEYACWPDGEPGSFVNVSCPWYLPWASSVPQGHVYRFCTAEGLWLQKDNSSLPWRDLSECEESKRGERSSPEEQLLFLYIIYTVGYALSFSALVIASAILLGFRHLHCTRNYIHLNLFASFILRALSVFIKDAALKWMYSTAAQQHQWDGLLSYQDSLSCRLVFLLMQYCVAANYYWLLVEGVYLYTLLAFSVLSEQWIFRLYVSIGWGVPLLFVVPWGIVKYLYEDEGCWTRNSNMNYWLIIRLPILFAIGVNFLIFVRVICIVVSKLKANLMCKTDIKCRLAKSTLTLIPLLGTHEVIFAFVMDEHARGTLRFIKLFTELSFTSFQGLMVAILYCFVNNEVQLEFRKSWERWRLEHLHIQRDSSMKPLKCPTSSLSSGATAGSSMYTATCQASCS

As usually defined, the EC50 is the concentration giving half of the maximal effect. With `CCCCCCCCCCCCCCCC(=O)N[C@@H](CCC(=O)NCCCC[C@H](NC(=O)[C@H](CC(=O)O)NC(=O)[C@H](CO)NC(=O)[C@@H](NC(=O)[C@H](Cc1ccccc1)NC(=O)[C@@H](NC(=O)CNC(=O)[C@H](CCC)NC(=O)C(C)(C)NC(=O)[C@@H](N)Cc1c[nH]cn1)[C@@H](C)O)[C@@H](C)O)C(=O)N[C@@H](CO)C(=O)N[C@@H](CCCCN)C(=O)N[C@@H](Cc1ccc(O)cc1)C(=O)N[C@@H](CC(C)C)C(=O)N[C@@H](CC(=O)O)C(=O)N[C@@H](CCC(=O)O)C(=O)N[C@@H](CCCNC(=N)N)C(=O)N[C@@H](C)C(=O)N[C@@H](C)C(=O)N[C@@H](CCC(N)=O)C(=O)N[C@@H](CC(=O)O)C(=O)N[C@@H](Cc1ccccc1)C(=O)N[C@H](C(=O)N[C@@H](CCC(N)=O)C(=O)N[C@@H](Cc1c[nH]c2ccccc12)C(=O)N[C@@H](CC(C)C)C(=O)N[C@@H](CC(C)C)C(=O)N[C@@H](CCC(=O)O)C(=O)NCC(=O)NCC(=O)N1CCC[C@H]1C(=O)N[C@@H](CO)C(=O)N[C@@H](CO)C(=O)NCC(=O)N[C@@H](C)C(=O)N1CCC[C@H]1C(=O)N1CCC[C@H]1C(=O)N1CCC[C@H]1C(=O)N[C@@H](CO)C(N)=O)C(C)C)C(=O)O` [compound 47] (H-H[Aib][Nva]GTFTSDK([γGlu-Palmitoyl])SKYLDERAAQDFVQWLLEGGPSSGAPPPS-NH2), the EC50 at GLP-1 receptor (setting [1]) turned out to be 0.003 nM; at glucagon receptor (setting [1]), 0.025 nM; on GIP receptor (setting [1]), 0.002 nM.
For the compound `CCCCCCCCCCCCCCCC(=O)N[C@@H](CCC(=O)NCCCC[C@H](NC(=O)[C@H](CC(=O)O)NC(=O)[C@H](CO)NC(=O)[C@@H](NC(=O)[C@H](Cc1ccccc1)NC(=O)[C@@H](NC(=O)CNC(=O)[C@@H](NC(=O)C(C)(C)NC(=O)[C@@H](N)Cc1c[nH]cn1)[C@@H](C)CC)[C@@H](C)O)[C@@H](C)O)C(=O)N[C@@H](CO)C(=O)N[C@@H](CCCCN)C(=O)N[C@@H](Cc1ccc(O)cc1)C(=O)N[C@@H](CC(C)C)C(=O)N[C@@H](CCC(=O)O)C(=O)N[C@@H](CCC(=O)O)C(=O)N[C@@H](CCCNC(=N)N)C(=O)N[C@@H](C)C(=O)N[C@@H](C)C(=O)N[C@@H](CCC(N)=O)C(=O)N[C@@H](CCC(=O)O)C(=O)N[C@@H](Cc1ccccc1)C(=O)N[C@H](C(=O)N[C@@H](CCC(N)=O)C(=O)N[C@@H](Cc1c[nH]c2ccccc12)C(=O)N[C@@H](CC(C)C)C(=O)N[C@@H](CC(C)C)C(=O)N[C@@H](CCC(=O)O)C(=O)NCC(=O)NCC(=O)N1CCC[C@H]1C(=O)N[C@@H](CO)C(=O)N[C@@H](CO)C(=O)NCC(=O)N[C@@H](C)C(=O)N1CCC[C@H]1C(=O)N1CCC[C@H]1C(=O)N1CCC[C@H]1C(=O)N[C@@H](CO)C(N)=O)C(C)C)C(=O)O` [compound 30] (H-H[Aib]IGTFTSDK([γGlu-Palmitoyl])SKYLEERAAQEFVQWLLEGGPSSGAPPPS-NH2), the EC50 worked out at 0.25 nM on GLP-1 receptor (setting [2]) and 0.423 nM on GIP receptor (setting [2]). Also, on glucagon receptor (setting [2]), the “EC50 at Glucagon Receptor” value was “Not active”.
`CCCCCCCCCCCCCCCC(=O)N[C@@H](CCC(=O)NCCCC[C@H](NC(=O)[C@H](CC(=O)O)NC(=O)[C@H](CO)NC(=O)[C@@H](NC(=O)[C@H](Cc1ccccc1)NC(=O)[C@@H](NC(=O)CNC(=O)[C@H](CC[S+](C)[O-])NC(=O)C(C)(C)NC(=O)[C@@H](N)Cc1c[nH]cn1)[C@@H](C)O)[C@@H](C)O)C(=O)N[C@@H](CO)C(=O)N[C@@H](CCCCN)C(=O)N[C@@H](Cc1ccc(O)cc1)C(=O)N[C@@H](CC(C)C)C(=O)N[C@@H](CC(=O)O)C(=O)N[C@@H](CCC(=O)O)C(=O)N[C@@H](CCCNC(=N)N)C(=O)N[C@@H](C)C(=O)N[C@@H](C)C(=O)N[C@@H](CCC(N)=O)C(=O)N[C@@H](CC(=O)O)C(=O)N[C@@H](Cc1ccccc1)C(=O)N[C@H](C(=O)N[C@@H](CCC(N)=O)C(=O)N[C@@H](Cc1c[nH]c2ccccc12)C(=O)N[C@@H](CC(C)C)C(=O)N[C@@H](CC(C)C)C(=O)N[C@@H](CCC(=O)O)C(=O)NCC(=O)NCC(=O)N1CCC[C@H]1C(=O)N[C@@H](CO)C(=O)N[C@@H](CO)C(=O)NCC(=O)N[C@@H](C)C(=O)N1CCC[C@H]1C(=O)N1CCC[C@H]1C(=O)N1CCC[C@H]1C(=O)N[C@@H](CO)C(N)=O)C(C)C)C(=O)O` (stereo partly drawn) [compound 46]: the figures for the EC50 at GLP-1 receptor (setting [1]), at glucagon receptor (setting [1]) and at GIP receptor (setting [1]) were 0.003 nM, 0.089 nM and 0.018 nM, respectively.
For the compound `CCCCCCCCCCCCCCCC(=O)N[C@@H](CCC(=O)NCCCC[C@H](NC(=O)[C@H](CC(=O)O)NC(=O)[C@H](CO)NC(=O)[C@@H](NC(=O)[C@H](Cc1ccccc1)NC(=O)[C@@H](NC(=O)CNC(=O)[C@H](CCNC(C)=O)NC(=O)C(C)(C)NC(=O)[C@@H](N)Cc1c[nH]cn1)[C@@H](C)O)[C@@H](C)O)C(=O)N[C@@H](CO)C(=O)N[C@@H](CCCCN)C(=O)N[C@@H](Cc1ccc(O)cc1)C(=O)N[C@@H](CC(C)C)C(=O)N[C@@H](CCC(=O)O)C(=O)N[C@@H](CCC(=O)O)C(=O)N[C@@H](CCCNC(=N)N)C(=O)N[C@@H](C)C(=O)N[C@@H](C)C(=O)N[C@@H](CCC(N)=O)C(=O)N[C@@H](CCC(=O)O)C(=O)N[C@@H](Cc1ccccc1)C(=O)N[C@H](C(=O)N[C@@H](CCC(N)=O)C(=O)N[C@@H](Cc1c[nH]c2ccccc12)C(=O)N[C@@H](CC(C)C)C(=O)N[C@@H](CC(C)C)C(=O)N[C@@H](CCC(=O)O)C(=O)NCC(=O)NCC(=O)N1CCC[C@H]1C(=O)N[C@@H](CO)C(=O)N[C@@H](CO)C(=O)NCC(=O)N[C@@H](C)C(=O)N1CCC[C@H]1C(=O)N1CCC[C@H]1C(=O)N1CCC[C@H]1C(=O)N[C@@H](CO)C(N)=O)C(C)C)C(=O)O` [compound 36] (H-H[Aib][Dab](Ac)GTFTSDK([γGlu-Palmitoyl])SKYLEERAAQEFVQWLLEGGPSSGAPPPS-NH2; N-terminus assumed), the EC50 is 0.003 nM on GLP-1 receptor (setting [2]), 0.009 nM on glucagon receptor (setting [2]) and 0.014 nM at GIP receptor (setting [2]).
Take `CCCCCCCCCCCCCCCC(=O)N[C@@H](CCC(=O)NCCCC[C@H](NC(=O)[C@H](CC(=O)O)NC(=O)[C@H](CO)NC(=O)[C@@H](NC(=O)[C@H](Cc1ccccc1)NC(=O)[C@@H](NC(=O)CNC(=O)[C@H](CCCCNC(C)=O)NC(=O)C(C)(C)NC(=O)[C@@H](N)Cc1c[nH]cn1)[C@@H](C)O)[C@@H](C)O)C(=O)N[C@@H](CO)C(=O)N[C@@H](CCCCN)C(=O)N[C@@H](Cc1ccc(O)cc1)C(=O)N[C@@H](CC(C)C)C(=O)N[C@@H](CCC(=O)O)C(=O)N[C@@H](CCC(=O)O)C(=O)N[C@@H](CCCNC(=N)N)C(=O)N[C@@H](C)C(=O)N[C@@H](C)C(=O)N[C@@H](CCC(N)=O)C(=O)N[C@@H](CCC(=O)O)C(=O)N[C@@H](Cc1ccccc1)C(=O)N[C@H](C(=O)N[C@@H](CCC(N)=O)C(=O)N[C@@H](Cc1c[nH]c2ccccc12)C(=O)N[C@@H](CC(C)C)C(=O)N[C@@H](CC(C)C)C(=O)N[C@@H](CCC(=O)O)C(=O)NCC(=O)NCC(=O)N1CCC[C@H]1C(=O)N[C@@H](CO)C(=O)N[C@@H](CO)C(=O)NCC(=O)N[C@@H](C)C(=O)N1CCC[C@H]1C(=O)N1CCC[C@H]1C(=O)N1CCC[C@H]1C(=O)N[C@@H](CO)C(N)=O)C(C)C)C(=O)O` [compound 39] (H-H[Aib]K(Ac)GTFTSDK([γGlu-Palmitoyl])SKYLEERAAQEFVQWLLEGGPSSGAPPPS-NH2; N-terminus assumed): the EC50 at GLP-1 receptor (setting [2]) is 0.01 nM; at glucagon receptor (setting [2]), 0.543 nM; at GIP receptor (setting [2]), 0.336 nM.
As for `CCCCCCCCCCCCCCCC(=O)N[C@@H](CCC(=O)NCCCC[C@H](NC(=O)[C@H](CC(=O)O)NC(=O)[C@H](CO)NC(=O)[C@@H](NC(=O)[C@H](Cc1ccccc1)NC(=O)[C@@H](NC(=O)CNC(=O)[C@H](C)NC(=O)C(C)(C)NC(=O)[C@@H](N)Cc1c[nH]cn1)[C@@H](C)O)[C@@H](C)O)C(=O)N[C@@H](CO)C(=O)N[C@@H](CCCCN)C(=O)N[C@@H](Cc1ccc(O)cc1)C(=O)N[C@@H](CC(C)C)C(=O)N[C@@H](CCC(=O)O)C(=O)N[C@@H](CCC(=O)O)C(=O)N[C@@H](CCCNC(=N)N)C(=O)N[C@@H](C)C(=O)N[C@@H](C)C(=O)N[C@@H](CCC(N)=O)C(=O)N[C@@H](CCC(=O)O)C(=O)N[C@@H](Cc1ccccc1)C(=O)N[C@H](C(=O)N[C@@H](CCC(N)=O)C(=O)N[C@@H](Cc1c[nH]c2ccccc12)C(=O)N[C@@H](CC(C)C)C(=O)N[C@@H](CC(C)C)C(=O)N[C@@H](CCC(=O)O)C(=O)NCC(=O)NCC(=O)N1CCC[C@H]1C(=O)N[C@@H](CO)C(=O)N[C@@H](CO)C(=O)NCC(=O)N[C@@H](C)C(=O)N1CCC[C@H]1C(=O)N1CCC[C@H]1C(=O)N1CCC[C@H]1C(=O)N[C@@H](CO)C(N)=O)C(C)C)C(=O)O` [compound 35] (H-H[Aib]AGTFTSDK([γGlu-Palmitoyl])SKYLEERAAQEFVQWLLEGGPSSGAPPPS-NH2; N-terminus assumed), the EC50 on GLP-1 receptor (setting [2]) stood at 0.002 nM; on glucagon receptor (setting [2]), 0.073 nM; at GIP receptor (setting [2]), 0.006 nM.
